The text below walks through data of article PMC5352051, “Identification of a novel Polo-like kinase 1 inhibitor that specifically blocks the functions of Polo-Box domain” (Oncotarget, 2016).

Each structure is given as a SMILES string.

The subject of assay [1] is HeLa cells. Nature of the assay: Cell cycle analysis by flow cytometry (DNA content). It is filed as cell-based, human. Particulars: synchronized HeLa, 10 μM. On the procedure: HeLa cells (1.0×10^5 cells/well) were synchronized at G1/S boundary by double-thymidine block and then released into various media with indicated reagents. For cell cycle analysis, HeLa cells were harvested at different time points, washed twice with PBS, fixed in ice-cold 70% ethanol for 30 min at 4°C, and incubated with 500 μL of Propidium Iodine (Sigma; 10 μg/mL) and RNase A (Sigma; 1 mg/mL) for 30 min at 37°C in the dark prior to flow cytometry analysis (FACScan, BD Biosciences).

Another assay has as its system HT29. Briefly: MTT assay. It is filed as cell-based. Particulars: Homo sapiens, HT-29; HT29, Colon, tumor; read-out: IC50 proliferation. On the procedure: (§1) The MTT assay was performed as described. In brief, cells were seeded at 3000~5000 cells/well into 96-well plates (200 μL/well) and incubated overnight. We replaced the growth medium with fresh medium containing T521 at several concentrations (two-fold dilutions and the initial concentration is 50 μM, 10 reactions total). After further incubation for 48 hrs in the presence of T521, the medium was removed from all wells and the cells were incubated with 200 μL of fresh medium for additional 24 hrs. We then added 22 μL of MTT solution (Amresco; 5 mg/mL in PBS) to each well and incubated the plate for 4 hrs at 37°C. After removing the medium, we dissolved the purple MTT-formazan crystals by adding 150 μL of DMSO to each well and recorded absorbance at 560 nm by Envision Multilabel Reader (PerkinElmer). The inhibition curve was plotted to determine the IC50 of various cell lines using GraphPad Prism5.0.
On the technique in general: Tetrazolium dyes change colour on reduction, which living cells bring about.

The test system of a further assay is MRC-5. Nature of the assay: MTT assay. It is filed as cell-based. Conditions: Homo sapiens, MRC5; MRC-5, Lung, normal; read-out: IC50 proliferation. The protocol: as §1
A further assay concerns Bel7402. Briefly: MTT assay. In kind it is cell-based. Conditions: Homo sapiens, Bel-7402; Bel7402, Liver, tumor; read-out: IC50 proliferation. The protocol:
as §1

A further assay concerns PC3. Briefly: MTT assay. In kind it is cell-based. Particulars: Homo sapiens, PC-3; PC3, Prostate, tumor; read-out: IC50 proliferation. The protocol: as §1
For another assay, the system named is MCF-7. Nature of the assay: MTT assay. It is filed as cell-based. Conditions: Homo sapiens, MCF7; MCF-7, Breast, tumor; read-out: IC50 proliferation. On the procedure: as §1
The subject of the next assay is MG63. Nature of the assay: MTT assay. In kind it is cell-based. Conditions: Homo sapiens, MG-63; MG63, Bone, tumor; read-out: IC50 proliferation. The protocol:
as §1

Another assay concerns HCT-116. Briefly: MTT assay. It is filed as cell-based. Particulars: Homo sapiens; HCT-116, Colon, tumor; read-out: IC50 proliferation. On the procedure:
as §1

In another assay the test system is A549. Nature of the assay: MTT assay. It is filed as cell-based. Particulars: Homo sapiens; A549, Lung, tumor; read-out: IC50 proliferation. The protocol:
as §1

The subject of a further assay is SH-SY5Y. Briefly: MTT assay. Particulars: Homo sapiens, Brain, tumor, read-out: IC50 proliferation. It is filed as cell-based. The protocol:
as §1

The next assay relates to HeLa. Nature of the assay: MTT assay. It is filed as cell-based. Conditions: Homo sapiens, Cervix, tumor, read-out: IC50 proliferation. The protocol: as §1
A further assay concerns U-2OS. Briefly: MTT assay. Conditions: Homo sapiens, U2OS, Bone, tumor, read-out: IC50 proliferation. In kind it is cell-based. The protocol: as §1
The subject of another assay is L02. Nature of the assay: MTT assay. In kind it is cell-based. Particulars: Homo sapiens; L02, Liver, normal; read-out: IC50 proliferation. The protocol: as §1
Another assay relates to HepG2. Nature of the assay: MTT assay. In kind it is cell-based. Conditions: Homo sapiens; HepG2, Liver, tumor; read-out: IC50 proliferation. The protocol: as §1
The test system of the next assay is HEK-293. Briefly: MTT assay. In kind it is cell-based. Conditions: Homo sapiens, HEK293; HEK-293, Kidney, normal; read-out: IC50 proliferation. The protocol:
as §1

The next assay concerns SaOS-2. Briefly: MTT assay. In kind it is cell-based. Particulars: Homo sapiens; SaOS-2, Bone, tumor; read-out: IC50 proliferation. The protocol:
as §1

Assay [2] deals with HeLa cells. Nature of the assay: Immunofluorescence assay, mitotic phase distribution. In kind it is cell-based, human. Conditions: 10 hrs; for percentage of prometaphase cells: synchronized HeLa, control 23.3%. The protocol:
To determine mitotic phase distribution, about 50 mitotic cells were analyzed. Cells were classified according to the structure and alignment of the chromosomes as well as the number and location of the centrosomes. All experiments were performed in triplicate. For confocal microscopy, HeLa cells grown on coverslips were fixed and permeabilized in methanol for 15 min at −20°C and then incubated with blocking buffer (PBS with 0.1% Triton X-100 and 5% BSA) for 2 hrs at RT. And then the coverslips were followed by washing and incubation with primary antibodies and fluorophore-conjugated secondary antibodies for 1 hr at RT, respectively. All antibodies were diluted in blocking buffer and the coverslips were washed three times with PBST, and then all coverslips were treated with 4',6-diamidino-2-phenylindole (DAPI) (Sigma; 2 μg/mL) for 2 min at RT, washed again and mounted onto slides using ProLong Diamond Antifade Mountant (Cat# 36961; Molecular Probes). Immunofluorescence images were taken with Olympus FV1000 Confocal Laser Microscope (Olympus, Japan) at 600×magnification. All images were processed using FV10-ASW 3.0 Viewer Software System (Olympus, Japan). The following antibodies were used: anti-α-Tubulin mouse monoclonal antibody (Cat# T9026; Sigma; 1:800), anti-γ-Tubulin rabbit polyclonal antibody (Cat# T3559; Sigma; 1:1500), Alex Fluor 488-conjugated goat anti-mouse IgG (Cat# A-11011; Molecular Probes; 1:1000) and Alex Fluor 594-conjugated donkey anti-rabbit IgG (Cat# A-21207; Molecular Probes; 1:1000).

Assay [3] has as its system PARP cleavage in HeLa cells. Nature of the assay: Western blot of PARP cleavage. It is filed as cell-based, human. Conditions: 24 hrs. On the procedure: We also performed a western blot assay to examine PARP cleavage, and the protocol was similar as describe above. Equal amount of proteins (30 μg/lane) were loaded, separated by 12% SDS-PAGE. Anti-PARP rabbit polyclonal antibody (Cat# 9542P; Cell Signaling Technology; 1:1500) was used as primary antibody. GAPDH was used as the loading control.
(In western blotting, separated proteins are transferred to a membrane and probed.)

As to `CCS(=O)(=O)c1oc(-c2ccc(F)cc2)nc1S(=O)(=O)c1ccccc1` [T521, 5-(ethylsulfonyl)-2-(4-fluorophenyl)-4-(phenylsulfonyl) oxazole], the “cells with 4C DNA content” value in the assay with HeLa cells [1] (16 hrs after release) is “about 40%”. Further, the “cells remaining in G2/M phase” value in the assay with HeLa cells [1] (entire course (24 hrs)) was “At least 20%”. The IC50 in the assay with HT29 was 3.86 µM; in the assay on MRC-5 it was 2640 nM; in the assay on Bel7402 it was 5.13 µM; in the assay on PC3, 1090 nM; in the assay with MCF-7 it was 1580 nM; in the assay on MG63 it was 6.25 µM. In addition, the IC50 with HCT-116 turned out to be 3.55 µM; in the assay with A549 it was 3.56 µM; in the assay on SH-SY5Y, 1370 nM; in the assay on HeLa it was 4.43 µM; in the assay with U-2OS it was 1060 nM; with L02, 7.11 µM. The IC50 in the assay with HepG2 amounted to 3.17 µM; in the assay on HEK-293, 8.66 µM; in the assay with SaOS-2, 1560 nM. Besides, the “percentage of prometaphase cells” value is recorded as 32.7% in the assay with HeLa cells [2] (5 μM), 56.0% in the assay with HeLa cells [2] (10 μM) and 76.2% in the assay on HeLa cells [2] (15 μM). Moreover, the “metaphase cells with chromosome alignment defects” value in the assay on HeLa cells [2] (synchronized HeLa, 5, 10, 15 μM) is given as “remarkable increase”. Further, the PARP cleavage entry in [3] is given as “increase of PARP cleavage”.
